Results taken from paper PMC6633970, “Acetylcholinesterases from Leaf-Cutting ant Atta sexdens: Purification, Characterization, and Capillary Reactors for On-Flow Assays” (Enzyme Research, 2019).

Experiments:
AsAChE-A [1] = tested on: T1, AsAChE-A; experiment: Ellman assay, […] nm, Lineweaver-Burk; assay type: biochemical, Atta sexdens; details: free enzyme; Tris-HCl, optimal pH (9.5) and temperature (30 or 50 °C, which not told); iodide salt; partially purified native enzyme
T1 construct: gene ace 2; native, soluble, from worker heads

AsAChE-B = target: T2, AsAChE-B (Atta sexdens, UniProt A0A2R2V0F5); experiment: on-flow LC-MS/MS of choline with immobilized enzyme capillary reactor; assay type: biochemical; details: read-out: % inhibition at 0.1 mM
T2 construct: native, soluble, from worker heads

AsAChE-A [2] = tested on: T1, AsAChE-A; experiment: LC-MS/MS quantification of choline, HILIC; assay type: biochemical, Atta sexdens; details: free enzyme; 15 mM ammonium acetate, pH 5.0 as printed; 5 min
Source text: LC-MS/MS quantification of choline, HILIC on AsAChE-A

CC(=O)SCC[N+](C)(C)C [ATCh, acetylthiocholine]
Km (AsAChE-A [1]): 39.1 ± 2.3 µM

Nc1c2c(nc3ccccc13)CCCC2 [tacrine]
inhibition at 100 µM (AsAChE-B): 16%

CC(=O)OCC[N+](C)(C)C [ACh, acetylcholine]
Km (AsAChE-A [2]): 40.7 ± 12.5 µM
